Measured values as given in publication PMC5547389, “Structure-activity relationships and molecular docking studies of chromene and chromene based azo chromophores: A novel series of potent antimicrobial and anticancer agents” (EXCLI Journal, 2017).
Converted amounts (≈) assume the structure as drawn. Like-named read-outs stand apart in the source and are kept apart here.

How the values were obtained:
HCT-116, MCF-7, HEPG-2 = experiment: Cytotoxic screening, statements over the three cell lines; type: cell-based; settings: Homo sapiens, read-out: IC50, range over the three cell lines
Protocol: (§1) Human colon carcinoma (HCT-116), human hepatocellular carcinoma (HEPG-2), adenocarcinomic human alveolar basal epithelial cell (A-549), and human breast adenocarcinoma (MCF-7) cell lines were obtained from the American Type Culture Collection (ATCC, Rockville, MD). The cells were grown on RPMI-1640 medium supplemented with 10 % inactivated fetal calf serum and 50 µg/ml gentamycin. The cells were maintained at 37 °C in a humidified atmosphere with 5 % CO2 and were subcultured two to three times a week. Potential cytotoxicity of the compounds was evaluated on tumor cells using the method of Gangadevi and Muthumary (2007[21]) (Klancnik et al., 2010[36]). The cells were grown as monolayers in growth RPMI-1640. The monolayers of 104 cells adhered at the bottom of the wells in a 96-well microtiter plate incubated for 24 h at 37 °C in a humidified incubator with 5 % CO2. The monolayers were then washed with sterile phosphate buffered saline (0.01 M pH 7.2) and simultaneously the cells were treated with 100 µL from different dilutions of tested sample in fresh maintenance medium and incubated at 37 °C. A control of untreated cells was made in the absence of tested sample. Positive controls containing doxorubicin were also tested as a reference drug for comparison. Six wells were used for each concentration of the test sample. Every 24 hours an observation under the inverted microscope was made. The number of the surviving cells was determined by staining the cells with crystal violet (Mosmann, 1983[42]; Gangadevi and Muthumary, 2007[21]) followed by cell lysing using 33 % glacial acetic acid and reading the absorbance at 590 nm using microplate reader (SunRise, TECAN, Inc, USA) after well mixing. The absorbance values from untreated cells were considered as 100 % proliferation. The number of viable cells was determined using microplate reader as previously mentioned before and the percentage of […] was calculated as [1-(ODt/ODc)] x 100 % where ODt is the mean optical density of wells treated with the tested sample and ODc is the mean optical density of untreated cells. The relation between surviving cells and drug concentration was plotted to get the survival curve of each tumor cell line after treatment with the specified compound. The 50 % inhibitory concentration (IC50), the concentration required to cause toxic effects in 50 % of intact cells, was estimated from graphic plots.
(§2) The in vitro cytotoxic activity was performed by MTT assay (Mosmann, 1983[42]; Alley et al., 1988[6]) against three human carcinoma cell lines: Human colon carcinoma (HCT-116), human breast adenocarcinoma (MCF-7), and human hepatocellular carcinoma (HEPG-2).

[1] = system: human breast adenocarcinoma (MCF-7); experiment: Cytotoxic screening; type: cell-based
Protocol: as §1, §2

[2] = system: Human colon carcinoma (HCT-116); experiment: Cytotoxic screening; type: cell-based
Protocol: as §1, §2

[3] = system: human hepatocellular carcinoma (HEPG-2); experiment: Cytotoxic screening; type: cell-based; settings: HepG2, read-out: IC50 HepG-2
Protocol: as §1, §2

[4] = system: Aspergillus fumigatus (RCMB 02568); experiment: MIC by serial dilution method; type: cell-based
Protocol: (§3) All the newly synthesized compounds described in this report were screened for both antibacterial and antifungal activity via the reported agar diffusion well method (Vanden Berghe and Vlietinck, 1991[62]). The inhibition zones and minimum inhibitory concentrations (MIC) were determined by the serial dilution method (Cappuccino and Sherman, 1999[12]). The antimicrobial activity of the synthesized compounds was tested against a broad panel of microorganisms including two Gram-positive bacteria: Streptococcus pneumoniae (RCMB 010010) and Bacillus subtilis (RCMB 010067), two Gram-negative bacteria: Pseudomonas aeruginosa (RCMB 010043) and Escherichia coli (RCMB 010052), and four fungi: Aspergillus fumigatus (RCMB 02568), Syncephalastrum racemosum (RCMB 05922), Geotricum candidum (RCMB 05097), and Candida albicans (RCMB 05036). Ampicillin, ciprofloxacin, gentamicin and amphotericin B were used as positive control drugs (Atta-ur-Rahman and Thomsen, 2001[7]; Smania et al., 1999[57]). […] While in the case of Gm-ve bacteria, they had weak activity. In addition, certain strains of fungi were sensitive to tested compounds with an IZ range from 12-25 except Candida albicans.

[5] = system: Bacillus subtilis (RCMB 010067); experiment: MIC by serial dilution method; type: cell-based; settings: RCMB010067, read-out: Minimum inhibitory concentration, MIC, B.S
Protocol: as §3

[6] = system: Geotricum candidum (RCMB 05097); experiment: MIC by serial dilution method; type: cell-based; settings: read-out: Minimum inhibitory concentration, MIC, G.C
Protocol: as §3

[7] = system: Escherichia coli (RCMB 010052); experiment: MIC by serial dilution method; type: cell-based; settings: RCMB010052, read-out: Minimum inhibitory concentration, MIC, E.C
Protocol: as §3

[8] = system: Streptococcus pneumoniae (RCMB 010010); experiment: MIC by serial dilution method; type: cell-based; settings: RCMB010010, read-out: Minimum inhibitory concentration, MIC, S.P
Protocol: as §3

[9] = system: Syncephalastrum racemosum (RCMB 05922); experiment: MIC by serial dilution method; type: cell-based
Protocol: as §3

[10] = system: Aspergillus fumigatus (RCMB 02568); experiment: Well diffusion assay (inhibition zone); type: cell-based
Protocol: (§4) The microorganism inoculums were uniformly spread using sterile cotton swabs on a sterile Petri dish malt extract agar (for fungi) and nutrient agar (for bacteria). One hundred cubic millimeters of each sample was added to each well (10 mm-diameter holes were cut in the agar gel, 20 mm apart from one another). The systems were incubated for 24-48 h at 37 °C (for bacteria) and at 28 °C (for fungi). After incubation, the microorganism growth was observed. Inhibition zones of the bacterial and fungal growth were measured in millimeters. Tests were performed in triplicate (Cappuccino and Sherman, 1999[12]; Vanden Berghe and Vlientinck, 1991[62]).
as §3

[11] = system: Bacillus subtilis (RCMB 010067); experiment: Well diffusion assay (inhibition zone); type: cell-based
Protocol: as §4, §3

[12] = system: Geotricum candidum (RCMB 05097); experiment: Well diffusion assay (inhibition zone); type: cell-based; settings: read-out: Inhibition Zone (IZ) diameter, G.C
Protocol: as §4, §3

[13] = system: Escherichia coli (RCMB 010052); experiment: Well diffusion assay (inhibition zone); type: cell-based
Protocol: as §4, §3

[14] = system: Streptococcus pneumoniae (RCMB 010010); experiment: Well diffusion assay (inhibition zone); type: cell-based
Protocol: as §4, §3

[15] = system: Syncephalastrum racemosum (RCMB 05922); experiment: Well diffusion assay (inhibition zone); type: cell-based
Protocol: as §4, §3

[16] = system: Gm+ve bacteria, Gm-ve bacteria, fungi; experiment: Well diffusion assay, statements over groups of microorganisms; type: cell-based
Protocol: as §4
All the newly synthesized compounds described in this report were screened for both antibacterial and antifungal activity via the reported agar diffusion well method (Vanden Berghe and Vlietinck, 1991[62]). The inhibition zones and minimum inhibitory concentrations (MIC) were determined by the serial dilution method (Cappuccino and Sherman, 1999[12]). […]

[17] = system: Candida albicans (RCMB 05036); experiment: Well diffusion assay (inhibition zone); type: cell-based; settings: RCMB05036, 5 mg/mL in DMSO, fungi, read-out: Inhibition Zone (IZ) diameter, C.A
Protocol: as §4, §3

[18] = Homo sapiens, MCF7; read-out: IC50 MCF-7
[19] = Homo sapiens, HCT-116; read-out: IC50 HCT-116
[20] = RCMB02568, 5 mg/mL in DMSO, fungi, read-out: Inhibition Zone (IZ) diameter, A.F
[21] = RCMB010067, 5 mg/mL in DMSO, Gm+ve, read-out: Inhibition Zone (IZ) diameter, B.S
[22] = RCMB010052, 5 mg/mL in DMSO, Gm-ve, read-out: Inhibition Zone (IZ) diameter, E.C
[23] = RCMB010010, 5 mg/mL in DMSO, Gm+ve, read-out: Inhibition Zone (IZ) diameter, S.P
[24] = RCMB05922, 5 mg/mL in DMSO, fungi, read-out: Inhibition Zone (IZ) diameter, S.R

| Compound | IC50 [3] [µg/mL] | IC50 [1, 18] [µg/mL] | IC50 [2, 19] [µg/mL] | zone of inhibition at 5000 µg/mL [10, 20] [mm] | zone of inhibition at 5000 µg/mL [11, 21] [mm] | zone of inhibition at 5000 µg/mL ([12]; 5 mg/mL in DMSO, fungi) [mm] | zone of inhibition at 5000 µg/mL [13, 22] [mm] | zone of inhibition at 5000 µg/mL [14, 23] [mm] | zone of inhibition at 5000 µg/mL [15, 24] [mm] | IZ range against Gm+ve, Gm-ve bacteria, and fungi [16] | melting point [°C] | zone of inhibition at 5000 µg/mL [17] [mm] | further results |
| --- | --- | --- | --- | --- | --- | --- | --- | --- | --- | --- | --- | --- | --- |
| Nc1cc2ccccc2cc1O [compound 1, 3-amino-2-naphthol] | 60.5 (≈ 380 µM) | – | – | – | – | – | – | – | – | – | – | – | IC50 (HCT-116, MCF-7, HEPG-2): 60 to 230 µg/mL (≈ 377 to 1440 µM); IC50 ([1]; Homo sapiens, MCF7, read-out: IC50 MCF-7): 230 µg/mL (≈ 1440 µM); IC50 ([2]; Homo sapiens, HCT-116, read-out: IC50 HCT-116): 218 µg/mL (≈ 1370 µM); MIC ([4]; RCMB02568, read-out: Minimum inhibitory concentration, MIC, A.F): 15.6 µg/mL (≈ 98.2 µM); MIC [5]: 31.2 µg/mL (≈ 196 µM); MIC [6]: 62.5 µg/mL (≈ 393 µM); MIC [7]: 7.8 µg/mL (≈ 49 µM); MIC [8]: 15.6 µg/mL (≈ 98.1 µM); MIC ([9]; RCMB05922, read-out: Minimum inhibitory concentration, MIC, S.R): 7.81 µg/mL (≈ 49.1 µM); zone of inhibition at 5000 µg/mL ([10]; RCMB02568, read-out: Inhibition Zone (IZ) diameter, A.F): 16.6 mm; zone of inhibition at 5000 µg/mL ([11]; RCMB010067, read-out: Inhibition Zone (IZ) diameter, B.S): 17.8 mm; zone of inhibition at 5000 µg/mL [12]: 19.2 mm; zone of inhibition at 5000 µg/mL ([13]; RCMB010052, read-out: Inhibition Zone (IZ) diameter, E.C): 15.5 mm; zone of inhibition at 5000 µg/mL ([14]; RCMB010010, read-out: Inhibition Zone (IZ) diameter, S.P): 15.9 mm; zone of inhibition at 5000 µg/mL ([15]; RCMB05922, read-out: Inhibition Zone (IZ) diameter, S.R): 14.3 mm |
| Nc1cccc2c(O)cccc12 [compound 5, 5-amino-1-naphthol] | 15.2 (≈ 95.5 µM) | 8.88 (≈ 55.8 µM) | 11.5 (≈ 72.2 µM) | 18.3 | 18.9 | 19.5 | 17.2 | 16.3 | 14.5 | – | – | – | IC50 (HCT-116, MCF-7, HEPG-2; HCT-116, MCF-7, HEPG-2 together): 9 to 15 µg/mL (≈ 56.5 to 94.2 µM) |
| COc1ccc(C2C(C#N)=C(N)Oc3c2ccc2c(N)cccc32)cc1 (centres unmarked) [7b, 2,7-Diamino-4-(4-methoxy-phenyl)-4H-benzo[h]chromene-3-carbonitrile] | 28.2 (≈ 82.1 µM) | 25.9 (≈ 75.4 µM) | 44.1 (≈ 128 µM) | 21.6 | 23.2 | 22.6 | 22.1 | 22.4 | 20.3 | 18-23 mm | 185 | – | – |
| N#CC1=C(N)Oc2c(ccc3c(N)cccc23)C1c1c(F)cc(F)cc1F (centres unmarked) [7d, 2,7-Diamino-4-(2,4,6-trifluoro-phenyl)-4H-benzo[h]chromene-3-carbonitrile] | 52.3 (≈ 142 µM) | 54 (≈ 147 µM) | 61.3 (≈ 167 µM) | 20.3 | 22.3 | 22.4 | 20.8 | 21.6 | 18.1 | 18-23 mm | 235 | – | – |
| CC(=O)c1ccc(N=Nc2cc3c(cc2O)OC(N)=C(C#N)C3c2ccc(F)cc2)cc1 (centres unmarked) [13d, 6-(4-Acetyl-phenylazo)-2-amino-4-(4-fluoro-phenyl)-7-hydroxy-4H-chromene-3-carbonitrile] | 85 (≈ 198 µM) | 80 (≈ 187 µM) | 75 (≈ 175 µM) | 13.4 | 13.2 | – | 10.8 | 12.9 | 11.4 | – | 265 | 8 | – |
| C[C@@H]1[C@H](O)[C@@H](C)/C=C/C=C/C=C/C=C/C=C/C=C/C=C/[C@H](O[C@@H]2O[C@H](C)[C@@H](O)[C@H](N)[C@@H]2O)C[C@@H]2O[C@](O)(C[C@@H](O)C[C@@H](O)[C@H](O)CC[C@@H](O)C[C@@H](O)CC(=O)O[C@H]1C)C[C@H](O)[C@H]2C(=O)O [Amphotericin B, reference compound] | – | – | – | 23.7 | – | 28.7 | – | – | 19.7 | – | – | 25.4 | MIC ([4]; RCMB02568, fungi, read-out: Minimum inhibitory concentration, MIC, A.F): 0.24 µg/mL (≈ 0.26 µM); MIC ([6]; fungi): 0.015 µg/mL (≈ 0.0162 µM); MIC ([9]; RCMB05922, fungi, read-out: Minimum inhibitory concentration, MIC, S.R): 3.9 µg/mL (≈ 4.22 µM) |
